We go through twelve molecules from patent US9944654B2, “Nargenicin compounds and uses thereof as antibacterial agents” (priority 2014, dated 2018).

Converted amounts (≈) assume the structure as drawn. Read-outs that look alike come from different tables or passages of the source. A value given as a limit tells only on which side of the number the result lay.

The target of experiment [1] is T1, E. coli DnaE (DNA polymerase III α-subunit from Escherichia coli) (Escherichia coli, UniProt P10443).
T1 construct: EcDnaE (E. coli DnaE residues 1-1160); 6xHis (N); made in house; host or cells: E. coli BL21(DE3)
T1 sequence (P10443 whole entry, the tested form may be a part): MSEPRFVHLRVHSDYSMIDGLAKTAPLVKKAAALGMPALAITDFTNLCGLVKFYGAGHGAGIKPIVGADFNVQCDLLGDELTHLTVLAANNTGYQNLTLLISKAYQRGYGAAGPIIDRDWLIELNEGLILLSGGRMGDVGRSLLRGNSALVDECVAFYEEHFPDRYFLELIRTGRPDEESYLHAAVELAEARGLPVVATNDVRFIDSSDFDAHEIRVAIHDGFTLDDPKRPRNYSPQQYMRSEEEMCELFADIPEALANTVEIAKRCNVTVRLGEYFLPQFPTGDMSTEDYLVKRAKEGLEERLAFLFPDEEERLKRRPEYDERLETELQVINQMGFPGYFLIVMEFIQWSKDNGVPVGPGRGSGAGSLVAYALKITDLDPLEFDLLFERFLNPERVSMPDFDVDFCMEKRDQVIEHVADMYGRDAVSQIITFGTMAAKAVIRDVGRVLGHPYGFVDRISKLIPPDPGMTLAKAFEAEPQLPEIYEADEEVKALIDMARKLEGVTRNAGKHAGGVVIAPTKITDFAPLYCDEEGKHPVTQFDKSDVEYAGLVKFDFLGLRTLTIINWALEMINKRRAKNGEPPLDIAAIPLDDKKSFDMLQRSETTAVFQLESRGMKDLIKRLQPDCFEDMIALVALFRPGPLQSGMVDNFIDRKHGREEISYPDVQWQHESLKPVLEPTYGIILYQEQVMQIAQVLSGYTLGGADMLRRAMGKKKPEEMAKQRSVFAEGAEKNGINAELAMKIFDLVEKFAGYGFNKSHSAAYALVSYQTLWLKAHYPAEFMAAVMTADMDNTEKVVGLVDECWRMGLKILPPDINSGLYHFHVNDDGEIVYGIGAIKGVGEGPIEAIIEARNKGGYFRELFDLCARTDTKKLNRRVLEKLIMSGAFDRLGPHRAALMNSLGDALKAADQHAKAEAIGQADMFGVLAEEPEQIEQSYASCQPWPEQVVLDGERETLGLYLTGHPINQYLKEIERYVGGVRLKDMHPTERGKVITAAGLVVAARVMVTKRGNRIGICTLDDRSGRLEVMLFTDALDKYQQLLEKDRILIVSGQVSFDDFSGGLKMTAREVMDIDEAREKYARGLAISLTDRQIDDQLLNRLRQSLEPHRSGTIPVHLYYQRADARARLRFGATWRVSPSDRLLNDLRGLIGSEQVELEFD
The experiment is described as follows: In vitro DnaE single enzyme assay (E. coli). In kind it is biochemical. In outline:
(§1)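 3H-dTTP (0.011 mM) incorporation into DNase I-activated calf thymus DNA, alongside the other three dNTPs at 0.025 mM, measured by filter counting after TCA precipitation. Reactions ran 30 min at 30° C., started with purified N-His DnaE: 0.8 μg/ml for E. coli, 0.05 μg/ml for S. aureus.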

Experiment [2] deals with T2, S. aureus DnaE (DNA polymerase III α-subunit homolog from Staphylococcus aureus) (Staphylococcus aureus, UniProt Q5HF71).
T2 construct: SaDnaE (S. aureus DnaE residues 1-1065); 6xHis (N); made in house; host or cells: E. coli BL21-AI
T2 sequence (Q5HF71 1-1065): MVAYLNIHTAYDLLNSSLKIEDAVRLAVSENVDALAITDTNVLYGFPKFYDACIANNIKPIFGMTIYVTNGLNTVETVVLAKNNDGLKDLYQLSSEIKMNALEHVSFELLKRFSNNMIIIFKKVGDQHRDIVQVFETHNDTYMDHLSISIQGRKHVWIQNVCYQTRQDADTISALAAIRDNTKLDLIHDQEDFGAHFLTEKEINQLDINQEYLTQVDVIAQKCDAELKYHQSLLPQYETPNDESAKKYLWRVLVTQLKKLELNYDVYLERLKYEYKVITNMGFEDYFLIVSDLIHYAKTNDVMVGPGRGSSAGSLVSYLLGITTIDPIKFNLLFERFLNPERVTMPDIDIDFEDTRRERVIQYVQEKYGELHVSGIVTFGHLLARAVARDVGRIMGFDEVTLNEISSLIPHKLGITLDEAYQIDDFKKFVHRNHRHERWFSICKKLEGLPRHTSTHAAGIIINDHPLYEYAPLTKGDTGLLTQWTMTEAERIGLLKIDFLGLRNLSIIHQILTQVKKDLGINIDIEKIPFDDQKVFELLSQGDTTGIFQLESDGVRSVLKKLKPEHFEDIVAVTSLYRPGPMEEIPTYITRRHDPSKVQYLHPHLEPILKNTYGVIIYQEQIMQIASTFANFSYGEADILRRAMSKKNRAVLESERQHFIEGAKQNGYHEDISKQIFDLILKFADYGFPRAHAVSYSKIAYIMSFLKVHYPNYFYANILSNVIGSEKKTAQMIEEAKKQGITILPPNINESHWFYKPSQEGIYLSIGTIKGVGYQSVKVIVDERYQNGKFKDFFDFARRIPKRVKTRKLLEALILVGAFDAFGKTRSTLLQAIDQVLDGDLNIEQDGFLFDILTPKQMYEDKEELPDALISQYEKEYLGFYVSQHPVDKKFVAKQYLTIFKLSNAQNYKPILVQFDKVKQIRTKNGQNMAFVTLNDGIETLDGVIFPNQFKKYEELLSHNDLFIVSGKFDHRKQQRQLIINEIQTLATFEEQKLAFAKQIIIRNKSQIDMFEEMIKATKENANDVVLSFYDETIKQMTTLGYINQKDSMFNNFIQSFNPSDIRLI
Put plainly: biochemical. In kind it is biochemical. In outline:
as §1

For experiment [3], the system named is Escherichia coli MB5747 (LS 883, tolC). The experiment is described as follows: microbe, parasite or virus in culture. It is filed as cell-based. The conditions noted are these: Escherichia coli, read-out: E. coli LS883 tolC (MIC), MHII broth; * = some reduction of growth versus control at […].
Experiment [4] concerns Pseudomonas aeruginosa MB5890 (CB1101, efflux-deleted). The experiment is described as follows: microbe, parasite or virus in culture. It is filed as cell-based. To be noted: Pseudomonas aeruginosa, read-out: P. aeruginosa MB5890 efflux-del (MIC), MHII broth; * = some reduction of growth versus control at […].
The test system of experiment [5] is Staphylococcus aureus MB6266 (MRSA COL). The experiment is described as follows: Nargenicin antibacterial assay (MIC), S. aureus. It is filed as cell-based. To be noted: Staphylococcus aureus, MRSA, read-out: S. aureus COL (MIC), MHII broth + 50% human serum; * = some reduction of growth versus control at […].
The test system of experiment [6] is Streptococcus pneumoniae MB6357 (CL 2883). Put plainly: Nargenicin antibacterial assay (MIC), S. pneumoniae. It is filed as cell-based. The conditions noted are these: Streptococcus pneumoniae, read-out: S. pneumoniae MB2883 (MIC), Isosensitest broth; * = some reduction of growth versus control at […].
Where [7] appears, read: read-out: E. coli DnaE IC50 (converted).

Consider `CO[C@H]1C[C@H]2[C@H](O)C[C@H]3[C@H]4O[C@]2(/C(C)=C/[C@@H](C)[C@@H]([C@@H](C)O)OC1=O)[C@@H]3[C@H](O)[C@@H](C)[C@H]4OC(=O)c1ccc[nH]1` [Example 191], for which the IC50 – broadly, the concentration at which inhibition is half-maximal – in experiment [1] (setting [7]) was over 187 µM; in experiment [2] (S. aureus DnaE IC50), 7.5 µM. Also, the MIC in experiment [3] was 128 µg/mL (≈ 240 µM); in experiment [4], over 128 µg/mL; in experiment [5], over 128 µg/mL; in experiment [6] it was over 128 µg/mL.

With `CO[C@H]1C[C@H]2C[C@H](O)[C@H]3[C@H]4O[C@]2(/C(C)=C/[C@@H](C)[C@@H]([C@@H](C)O)OC1=O)[C@@H]3[C@H](O)[C@@H](C)[C@H]4OC(=O)c1ccc[nH]1` [Example 192], the IC50 in experiment [1] (setting [7]) is over 187 µM; in experiment [2] (S. aureus DnaE IC50) it was 18.7 µM. The MIC in experiment [3], in experiment [4], in experiment [5] and in experiment [6] was over 128 µg/mL each time.

Consider `CO[C@H]1C[C@H]2C=C[C@H]3[C@H]4O[C@]2(/C(C)=C/[C@@H](C)[C@@H]([C@@H](C)O)OC1=O)[C@@H]3[C@H](O)C(C)[C@@H]4NCCN.O=C(O)C(F)(F)F` (stereo partly drawn) [Example 155], for which the IC50 in experiment [1] (E. coli DnaE IC50) was over 173 µM; in experiment [2] (read-out: S. aureus DnaE IC50 (converted)) it was 2.59 µM. Moreover, the MIC in experiment [3] is over 128 µg/mL; in experiment [4], 128 µg/mL; in experiment [5], over 128 µg/mL; in experiment [6], over 128 µg/mL.

As for `C/C1=C\[C@@H](C)[C@@H](C(C)O)OC(=O)C(O)CC2C=C[C@H]3[C@H]4O[C@@]12[C@@H]3[C@H](O)[C@@H](C)[C@H]4OC(=O)c1ccc[nH]1` (stereo partly drawn) [Example 174], the IC50 in experiment [1] (setting [7]) is 21.9 µM; in experiment [2] (S. aureus DnaE IC50) it was 0.0199 µM. Besides, the MIC in experiment [3] is 8 µg/mL (≈ 15.9 µM); in experiment [4], over 128 µg/mL; in experiment [5] it was 8 µg/mL; in experiment [6] it was over 128 µg/mL.

For the molecule `CO[C@H]1C[C@H]2C=C[C@H]3[C@H]4O[C@]2(/C(C)=C/[C@@H](C)[C@@H]([C@@H](C)O)OC1=O)[C@@H]3C(=O)[C@@H](C)[C@H]4OC(=O)c1ccc[nH]1` [Example 146, (3R,4S,7S,8aS,10aR,11R,12R,13S,14aR,14bS,E)-4-((R)-1-hydroxyethyl)-7-methoxy-1,3,13-trimethyl-6,14-dioxo-3,4,6,7,8,8a,10a,11,12,13,14,14a-dodecahydro-11,14b-epoxynaphtho[2,1-e]oxecin-12-yl 1H-pyrrole-2-carboxylate], the IC50 in experiment [1] (setting [7]) was over 195 µM; in experiment [2] (S. aureus DnaE IC50) it was 1.17 µM. For the same molecule, the MIC is 128 µg/mL (≈ 249 µM) in experiment [3], over 128 µg/mL in experiment [4], over 128 µg/mL in experiment [5] and 128 µg/mL (≈ 249 µM) in experiment [6].

`CO[C@H]1C[C@H]2C=C[C@H]3[C@H]4O[C@]2(/C(C)=C/[C@@H](C)COC1=O)[C@@H]3[C@H](O)[C@@H](C)[C@H]4OC(=O)c1ccc[nH]1` [Example 47, (3R,7S,8aS,10aR,11R,12R,13R,14R,14aS,14bS,E)-14-hydroxy-7-methoxy-1,3,13-trimethyl-6-oxo-3,4,6,7,8,8a,10a,11,12,13,14,14a-dodecahydro-11,14b-epoxynaphtho[2,1-e]oxecin-12-yl 1H-pyrrole-2-carboxylate]: the figures for the IC50 in experiment [1] (setting [7]) and in experiment [2] (S. aureus DnaE IC50) were over 212 µM and 0.0891 µM, respectively. In addition, the MIC in experiment [3] is 16 µg/mL (≈ 33.9 µM); in experiment [4], over 128 µg/mL; in experiment [5] it was 64 µg/mL; in experiment [6] it was over 128 µg/mL.

`CO[C@H]1C[C@H]2C=C[C@H]3[C@H]4O[C@]2(/C(C)=C/[C@@H](C)[C@@H]([C@@H](C)OC(N)=O)OC1=O)[C@@H]3[C@H](O)[C@@H](C)[C@H]4OC(=O)c1ccc[nH]1` [Example 7]: the results for the IC50 in experiment [1] (setting [7]) and in experiment [2] (S. aureus DnaE IC50) were 53.7 µM and under 0.0107 µM, respectively. Besides, the MIC is 2 µg/mL (≈ 3.58 µM) in experiment [3], 32 µg/mL (≈ 57.3 µM) in experiment [4], 4 µg/mL in experiment [5] and over 128 µg/mL in experiment [6].

On to `CC[C@@H]1OC(=O)[C@@H](OC)C[C@H]2C=C[C@H]3[C@H]4O[C@]2(/C(C)=C/[C@H]1C)[C@@H]3[C@H](O)[C@@H](C)[C@H]4OC(=O)c1ccc[nH]1` [Example 49], for which the IC50 is over 200 µM in experiment [1] (setting [7]) and 0.56 µM in experiment [2] (S. aureus DnaE IC50). Moreover, the MIC in experiment [3] is 64 µg/mL (≈ 128 µM); in experiment [4], over 128 µg/mL; in experiment [5] it was over 128 µg/mL; in experiment [6] it was over 128 µg/mL.

On to `CO[C@H]1C[C@H]2C=CC3C4[C@H](O)[C@@H](C)[C@@H](OC(=O)c5cc(NC(C)=O)c[nH]5)[C@@H]3O[C@]42/C(C)=C/[C@@H](C)[C@@H]([C@@H](C)O)OC1=O` [Example 168, (3R,4S,7S,8aS,11R,12R,13R,14R,14bS,E)-14-hydroxy-4-((R)-1-hydroxyethyl)-7-methoxy-1,3,13-trimethyl-6-oxo-3,4,6,7,8,8a,10a,11,12,13,14,14a-dodecahydro-11,14b-epoxynaphtho[2,1-e]oxecin-12-yl 4-acetamido-1H-pyrrole-2-carboxylate], for which the results for the IC50 in experiment [1] (setting [7]) and in experiment [2] (S. aureus DnaE IC50) were over 87.3 µM and 31.4 µM, respectively. Further, the MIC in experiment [3] was over 128 µg/mL; in experiment [4], over 64 µg/mL; in experiment [5], over 128 µg/mL; in experiment [6] it was over 64 µg/mL.

As for `CO[C@H]1C[C@H]2C=CC3C4[C@H](O)[C@@H](C)[C@@H](OC(=O)c5cc(NC(=O)c6ccccc6)c[nH]5)[C@@H]3O[C@]42/C(C)=C/[C@@H](C)[C@@H]([C@@H](C)O)OC1=O` [Example 167, (3R,4S,7S,8aS,11R,12R,13R,14R,14bS,E)-14-hydroxy-4-((R)-1-hydroxyethyl)-7-methoxy-1,3,13-trimethyl-6-oxo-3,4,6,7,8,8a,10a,11,12,13,14,14a-dodecahydro-11,14b-epoxynaphtho[2,1-e]oxecin-12-yl 4-benzamido-1H-pyrrole-2-carboxylate], the IC50 is over 158 µM in experiment [1] (setting [7]) and 3.15 µM in experiment [2] (S. aureus DnaE IC50). In addition, the MIC in experiment [3], in experiment [4], in experiment [5] and in experiment [6] was over 128 µg/mL throughout.

With `CO[C@H]1C[C@H]2C=C[C@H]3[C@H]4O[C@]2(/C(C)=C/[C@@H](C)[C@@H]([C@@H](C)OC(=O)NCc2ccncc2)OC1=O)[C@@H]3[C@H](O)[C@@H](C)[C@H]4OC(=O)c1ccc[nH]1` [Example 11], the IC50 was 123 µM in experiment [1] (setting [7]) and 0.0292 µM in experiment [2] (S. aureus DnaE IC50). Moreover, the MIC in experiment [3] is 16 µg/mL (≈ 24.6 µM); in experiment [4] it was over 128 µg/mL; in experiment [5], 32 µg/mL; in experiment [6] it was over 128 µg/mL.

With `CCCCCCCCNC(=O)O[C@H](C)[C@H]1OC(=O)[C@@H](OC)C[C@H]2C=C[C@H]3[C@H]4O[C@]2(/C(C)=C/[C@H]1C)[C@@H]3[C@H](O)[C@@H](C)[C@H]4OC(=O)c1ccc[nH]1` [Example 14], the IC50 in experiment [1] (setting [7]) was 16.4 µM; in experiment [2] (S. aureus DnaE IC50) it was 0.119 µM. The MIC in experiment [3] was over 128 µg/mL; in experiment [4], over 128 µg/mL; in experiment [5], over 128 µg/mL; in experiment [6] it was 32 µg/mL (≈ 47.7 µM).
